Biological target: T1, hSK3 channels (Homo sapiens, UniProt Q9UGI6)
T1 construct: expressed in transfected cells; host or cells: HEK293
Experiment: Whole-cell patch-clamp recording of ionic current through SK channels (subtype 3) in HEK293 cells expressing hSK3
Assay type: cell-based
Experimental: The ionic current through small-conductance Ca^2+-activated K^+ channels (SK channels, subtype 3) is recorded using the whole-cell configuration of the patch-clamp technique in a classic patch-clamp set-up using HEK293 tissue culture cells expressing hSK3 channels as described in e.g. WO 2006/100212.
The SC100 value determined is defined as the Stimulating Concentration required for increasing the baseline current by 100%. The SC100 value determined for Compound 6.5 of the invention was 0.3 μM, which is an indication of its SK3 activating properties.

- SC100 (Stimulating Concentration required for increasing the baseline current by 100%): 0.3 µM
SMILES: Cc1cc(C)n(-c2nc(N(C(=O)OCC(C)C)c3ccc(Cl)cc3)c3ncn(C)c3n2)n1 [Compound 6.5, (4-Chloro-Phenyl)-[2-(3,5-Dimethyl-Pyrazol-1-yl)-9-Methyl-9H-Purin-6-yl]-Carbamic Acid Isobutyl Ester]

Reference: patent publication US8268838B2, “Substituted purinyl-pyrazole derivatives and their use as potassium channel modulators” (Neurosearch A/S, priority 2008, dated 2012)
